This passage reports IC50 results from patent US11078228B2, “Ectonucleotidase inhibitors and methods of use thereof” (Calithera Biosciences, Inc., priority 2018, dated 2021).

pIC50: −log10 of the molar value.

recombinant CD73, sequence (P21589 27-547): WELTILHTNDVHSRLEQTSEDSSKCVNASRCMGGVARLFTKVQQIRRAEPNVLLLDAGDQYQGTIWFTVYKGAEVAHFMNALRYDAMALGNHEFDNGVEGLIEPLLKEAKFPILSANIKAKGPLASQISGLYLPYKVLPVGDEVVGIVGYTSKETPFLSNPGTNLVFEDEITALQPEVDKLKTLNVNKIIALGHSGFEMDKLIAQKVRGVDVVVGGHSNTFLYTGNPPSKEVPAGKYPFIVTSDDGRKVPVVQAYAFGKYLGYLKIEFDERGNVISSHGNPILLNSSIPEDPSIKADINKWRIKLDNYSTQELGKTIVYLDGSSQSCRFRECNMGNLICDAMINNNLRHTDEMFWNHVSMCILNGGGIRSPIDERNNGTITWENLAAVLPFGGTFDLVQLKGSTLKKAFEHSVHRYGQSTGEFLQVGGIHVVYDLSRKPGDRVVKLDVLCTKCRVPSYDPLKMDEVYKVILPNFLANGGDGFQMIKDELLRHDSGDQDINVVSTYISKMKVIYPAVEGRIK

For this assay, the target named is recombinant CD73 (Homo sapiens (Human), UniProt P21589). Kind of assay: Assay 2: Inhibition of the CD73 enzyme in vitro (0.05 nM CD73, 1 hour 37° C., Malachite Green). The conditions noted are these: 0.05 nM CD73, 50 μM AMP, 1 hour at 37° C. Format: biochemical. How it is done:
For measurements of soluble CD73 enzyme activity, recombinant CD73 was obtained from R&D Systems, Cat. No. 5795-EN-010. […] Reactions were allowed to proceed for 1 hour at 37° C. before the addition of 100 μL Malachite Green (Cell Signaling Technology, Cat. No. 12776). After 5 minutes at room temperature, absorbance at 630 nm was determined on a microplate spectrophotometer. The concentration of inorganic phosphate was determined using a phosphate standard curve.
As usually defined, the pIC50 is the negative decadic logarithm of the IC50, by convention in mol/L. Consider `C#C[C@@]1(O)[C@@H](COC(Cc2ccccc2)(C(=O)O)C(=O)O)O[C@@H](n2cnc3c(N[C@@H](C)c4ccccc4)nc(Cl)nc32)[C@@H]1O` [Example 63, 2-benzyl-2-(((2R,3S,4R,5R)-5-(2-chloro-6-(((S)-1-phenylethyl)amino)-9H-purin-9-yl)-3-ethynyl-3,4-dihydroxytetrahydrofuran-2-yl)methoxy)malonic acid], for which the pIC50 was 9.00.
Turning to `CC#C[C@@]1(O)[C@@H](COC(Cc2ccccc2)(C(=O)O)C(=O)O)O[C@@H](n2cnc3c(N)nc(Cl)nc32)[C@@H]1O` [Compound 3, 2-(((2R,3S,4R,5R)-5-(6-amino-2-chloro-9H-purin-9-yl)-3,4-dihydroxy-3-(prop-1-yn-1-yl)tetrahydrofuran-2-yl)methoxy)-2-benzylmalonic acid], the negative logarithm of the IC50 (pIC50) is 9.00.
Next, `C#C[C@@]1(O)[C@@H](COC(Cc2ccc(N3CCCNC3=O)cc2)(C(=O)O)C(=O)O)O[C@@H](n2cc(C)c(=O)[nH]c2=O)[C@@H]1O` [Example 133, 2-(((2R,3S,4R,5R)-3-ethynyl-3,4-dihydroxy-5-(5-methyl-2,4-dioxo-3,4-dihydropyrimidin-1 (2H)-yl)tetrahydrofuran-2-yl)methoxy)-2-(4-(2-oxotetrahydropyrimidin-1 (2H)-yl)benzyl)malonic acid]: 8.15.
For `C#C[C@@]1(O)[C@@H](COC(Cc2ccc(N3CCCNC3=O)cc2)(C(=O)O)c2cscn2)O[C@@H](n2cnc3c(N)nc(Cl)nc32)[C@@H]1O` (stereo partly drawn) [Example 175, 2-(((2R,3S,4R,5R)-5-(6-amino-2-chloro-9H-purin-9-yl)-3-ethynyl-3,4-dihydroxytetrahydrofuran-2-yl)methoxy)-3-(4-(2-oxotetrahydropyrimidin-1 (2H)-yl)phenyl)-2-(thiazol-4-yl)propanoic acid], the negative logarithm of the IC50 (pIC50) was 9.00.
Next, `C#C[C@@]1(O)[C@@H](COC(Cc2ccccc2)(C(=O)O)C(=O)O)O[C@@H](n2cnc3c(NCC4(O)CCC4)nc(Cl)nc32)[C@@H]1O` [Example 40, 2-benzyl-2-(((2R,3S,4R,5R)-5-(2-chloro-6-(((1-hydroxycyclobutyl)-methyl)amino)-9H-purin-9-yl)-3-ethynyl-3,4-dihydroxytetrahydrofuran-2-yl)methoxy)malonic acid]: 8.52; `C#C[C@@]1(O)[C@@H](COC(Cc2ccccc2)(C(=O)O)C(=O)O)O[C@@H](n2cnc3c(-c4cnn(S(=O)(=O)c5ccc(C)cc5)c4)nc(Cl)nc32)[C@@H]1O` [Example 159, 2-benzyl-2-(((2R,3S,4R,5R)-5-(2-chloro-6-(1-tosyl-1H-pyrazol-4-yl)-9H-purin-9-yl)-3-ethynyl-3,4-dihydroxytetrahydrofuran-2-yl)methoxy)malonic acid]: 6.32.
As for `C#C[C@@]1(O)[C@@H](COC(Cc2ccccc2)(C(=O)O)C(=O)OCC)O[C@@H](n2cnc3c(NCc4ccccc4Cl)nc(Cl)nc32)[C@@H]1O` (stereo partly drawn) [Example 108, 2-benzyl-2-(((2R,3S,4R,5R)-5-(2-chloro-6-((2-chlorobenzyl)amino)-9H-purin-9-yl)-3-ethynyl-3,4-dihydroxytetrahydrofuran-2-yl)methoxy)-3-ethoxy-3-oxopropanoic acid], the figure is 8.52; as for `C#C[C@@]1(O)[C@@H](COC(Cc2ccccc2)(C(=O)O)C(=O)O)O[C@@H](n2cnc3c(-c4ccccc4)nc(Cl)nc32)[C@@H]1O` [Example 14, 2-benzyl-2-(((2R,3S,4R,5R)-5-(2-chloro-6-phenyl-9H-purin-9-yl)-3-ethynyl-3,4-dihydroxytetrahydrofuran-2-yl)methoxy)malonic acid], 9.22.
As for `C#C[C@@]1(O)[C@@H](COC(Cc2ccc(N3CCCN(CCO)C3=O)cc2)(C(=O)O)C(=O)O)O[C@@H](n2cnc3c(NC)nc(Cl)nc32)[C@@H]1O` [Example 137, 2-(((2R,3S,4R,5R)-5-(2-chloro-6-(methylamino)-9H-purin-9-yl)-3-ethynyl-3,4-dihydroxytetrahydrofuran-2-yl)methoxy)-2-(4-(3-(2-hydroxyethyl)-2-oxotetrahydropyrimidin-1 (2H)-yl)benzyl)malonic acid], the figure is 9.51; as for `C#C[C@@]1(O)[C@@H](COC(Cc2ccccc2)(C(=O)O)C(=O)O)O[C@@H](n2cnc3c(N(CCO)C4CC4)nc(Cl)nc32)[C@@H]1O` [Example 99, 2-benzyl-2-(((2R,3S,4R,5R)-5-(2-chloro-6-(cyclopropyl(2-hydroxyethyl)amino)-9H-purin-9-yl)-3-ethynyl-3,4-dihydroxytetrahydrofuran-2-yl)methoxy)malonic acid], 8.22; as for `C#C[C@@]1(O)[C@@H](COC(Cc2cc(C)on2)(C(=O)O)C(=O)O)O[C@@H](n2cnc3c(NCc4ccc(F)cc4)nc(Cl)nc32)[C@@H]1O` [Example 111, 2-(((2R,3S,4R,5R)-5-(2-chloro-6-((4-fluorobenzyl)amino)-9H-purin-9-yl)-3-ethynyl-3,4-dihydroxytetrahydrofuran-2-yl)methoxy)-2-((5-methylisoxazol-3-yl)methyl)malonic acid], 5.57.
For the molecule `C#C[C@@]1(O)[C@@H](CO[C@@H](Cc2ccc(N3CCCNC3=O)cc2)C(=O)O)O[C@@H](n2cnc3c(N)nc(Cl)nc32)[C@@H]1O` (single isomer, unassigned) [Example 167], the pIC50 was 6.86.
Next, `C#C[C@@]1(O)[C@@H](COC(Cc2cscn2)(C(=O)O)C(=O)O)O[C@@H](n2cnc3c(N)nc(Cl)nc32)[C@@H]1O` [Example 126, 2-(((2R,3S,4R,5R)-5-(6-amino-2-chloro-9H-purin-9-yl)-3-ethynyl-3,4-dihydroxytetrahydrofuran-2-yl)methoxy)-2-(thiazol-4-ylmethyl)malonic acid]: 8.05.
As for `C#C[C@@]1(O)[C@@H](COC(Cc2ccccc2)(C(=O)O)C(=O)O)O[C@@H](n2cnc3c(N4CC[C@@H](CO)C4)nc(Cl)nc32)[C@@H]1O` [Example 102, 2-benzyl-2-(((2R,3S,4R,5R)-5-(2-chloro-6-((R)-3-(hydroxymethyl)-pyrrolidin-1-yl)-9H-purin-9-yl)-3-ethynyl-3,4-dihydroxytetrahydrofuran-2-yl)methoxy)malonic acid], the figure is 9.00.
Regarding `C#C[C@@]1(O)[C@@H](COC(Cc2ccccc2)(C(=O)O)C(=O)O)O[C@@H](n2cnc3c(NCc4ccncc4)nc(Cl)nc32)[C@@H]1O` [Example 78, 2-benzyl-2-(((2R,3S,4R,5R)-5-(2-chloro-6-((pyridin-4-ylmethyl)amino)-9H-purin-9-yl)-3-ethynyl-3,4-dihydroxytetrahydrofuran-2-yl)methoxy)malonic acid], the pIC50 is 8.70.
On to `C#C[C@@]1(O)[C@@H](COC(Cc2ccccc2)(C(=O)O)C(=O)O)O[C@@H](n2cnc3c(N4CC(CO)C4)nc(Cl)nc32)[C@@H]1O` [Example 46, 2-benzyl-2-(((2R,3S,4R,5R)-5-(2-chloro-6-(3-(hydroxymethyl)azetidin-1-yl)-9H-purin-9-yl)-3-ethynyl-3,4-dihydroxytetrahydrofuran-2-yl)methoxy)malonic acid], for which the negative logarithm of the IC50 (pIC50) is 9.00.
As for `C#C[C@@]1(O)[C@@H](COC(Cc2ccc(-c3ccc[nH]c3=O)cc2)(C(=O)O)C(=O)O)O[C@@H](n2cnc3c(NC)nc(Cl)nc32)[C@@H]1O` [Example 147, 2-(((2R,3S,4R,5R)-5-(2-chloro-6-(methylamino)-9H-purin-9-yl)-3-ethynyl-3,4-dihydroxytetrahydrofuran-2-yl)methoxy)-2-(4-(2-oxo-1,2-dihydropyridin-3-yl)benzyl)malonic acid], the figure is 9.24; as for `C#C[C@@]1(O)[C@@H](COC(Cc2ccc(N3CCCN(C)C3=O)cc2)(C(=O)O)C(=O)O)O[C@@H](n2cnc3c(NC)nc(Cl)nc32)[C@@H]1O` [Example 148, 2-(((2R,3S,4R,5R)-5-(2-chloro-6-(methylamino)-9H-purin-9-yl)-3-ethynyl-3,4-dihydroxytetrahydrofuran-2-yl)methoxy)-2-(4-(3-methyl-2-oxotetrahydropyrimidin-1 (2H)-yl)benzyl)malonic acid], 10.10; as for `C#C[C@@]1(O)[C@@H](COC(Cc2ccc(N3CCCNC3=O)cc2)(C(=O)O)C(=O)O)O[C@@H](n2cnc3c(NCc4ccc(OC)cc4OC)cc(Cl)nc32)[C@@H]1O` [Example 156, 2-(((2R,3S,4R,5R)-5-(5-chloro-7-((2,4-dimethoxybenzyl)amino)-3H-imidazo[4,5-b]pyridin-3-yl)-3-ethynyl-3,4-dihydroxytetrahydrofuran-2-yl)methoxy)-2-(4-(2-oxotetrahydropyrimidin-1 (2H)-yl)benzyl)malonic acid], 9.85.
For `C#C[C@@]1(O)[C@@H](COC(Cc2ccsc2)(C(=O)O)C(=O)O)O[C@@H](n2cnc3c(NC(C)C)nc(Cl)nc32)[C@@H]1O` [Example 33, 2-(((2R,3S,4R,5R)-5-(2-chloro-6-(isopropylamino)-9H-purin-9-yl)-3-ethynyl-3,4-dihydroxytetrahydrofuran-2-yl)methoxy)-2-(thiophen-3-ylmethyl)malonic acid], the negative-log IC50 (pIC50) was 8.70.
Next, `C#C[C@@]1(O)[C@@H](COC(Cc2cccs2)(C(=O)O)C(=O)O)O[C@@H](n2cnc3c(N)nc(Cl)nc32)[C@@H]1O` [Example 128, 2-(((2R,3S,4R,5R)-5-(6-amino-2-chloro-9H-purin-9-yl)-3-ethynyl-3,4-dihydroxytetrahydrofuran-2-yl)methoxy)-2-(thiophen-2-ylmethyl)malonic acid]: 8.22; `C#C[C@@]1(O)[C@@H](COC(Cc2ccc(-c3cccn(COC)c3=O)cc2)(C(=O)O)C(=O)O)O[C@@H](n2cnc3c(N)nc(Cl)nc32)[C@@H]1O` [Compound 11, 2-(((2R,3S,4R,5R)-5-(6-amino-2-chloro-9H-purin-9-yl)-3-ethynyl-3,4-dihydroxytetrahydrofuran-2-yl)methoxy)-2-(4-(1-(methoxymethyl)-2-oxo-1,2-dihydropyridin-3-yl)benzyl)malonic acid]: 10.22.
